Data taken from PMC8348766, “Enhancement of Anti-Tumoral Immunity by β-Casomorphin-7 Inhibits Cancer Development and Metastasis of Colorectal Cancer” (International Journal of Molecular Sciences, 2021).
No end group written: not given here.

Tests used:
CD10 [1] = biological target: T1, CD10 (Homo sapiens, UniProt P08473); assay: Suppression of CD10-mediated BCM degradation by thiorphan; assay type: biochemical; details: TOP 1 μM in combination with CD10; 125I-labeled BCM 50 μg
CD10 [2] = biological target: T1, CD10; assay: Degradation of 125I-labeled BCM by CD10; assay type: in vitro ADME
Protocol: Figure 1 Effect of BCM on spleen cells and degradation of BCM by CD10. (A) Effect of BCM on subpopulations of spleen cells. Spleen cells of BALB/c mice were treated with BCM (0.1 μg/mL) for 48 h. Differentiation markers were examined by ELISA. (B) Effect of CD10 on degradation of BCM. ^125I-labeled BCM (50 μg) was incubated with CD10 for 16 h. Intact BCM bound to anti-BCM antibody and degraded peptides were separated with electrophoresis and detected by autoradiography. […] (E) Time course of degradation of BCM by CD10. ^125I-labeled BCM (50 μg) was incubated with CD10 (60 μg) and TOP (1 μM). (F) Effect of degraded BCM on subset of spleen cells. Error bar, standard deviation from three independent trials. BCM, β-casomorphin-7; cluster of differentiation; ELISA, enzyme-linked immunosorbent assay; Treg, regulatory T cell; tyr-pro, 1st and 2nd amino acids of BCM; Ab, anti-BCM antibody; TOP, thiorphan.
The N-terminal tyrosine of BCM was labeled with ^125I, and then treated with CD10, followed by treatment with an anti-BCM antibody and electrophoresis in a 15–25% polyacrylamide gel. […] It is considered that a short fragment of tyr-pro at the N-terminal of ^125I-labeled BCM was cleaved. […] In contrast, no decrease in intact BCM was observed when it was additionally treated with TOP. Of note, the CD10 degradation product of BCM had no effect on the lymphocyte subset (Figure 1F).
BCM was purchased from Sigma. Di-amino acid peptide (tyr-pro; 1st and 2nd amino acids of BCM) was synthesized by Peptide Institute Inc. (Ibaraki, Japan). BCM and the tyr-pro peptide were labeled by chloramine-T method with ^125I (J-RAM, Tokyo, Japan) using Pierce™ iodination beads (Thermo Fisher). Labeled BCM was incubated with CD10 in neutral peptidase assay buffer (40 mM Tris-HCl pH 7.1, 4 mM MgCl2, 0.5 mM ZnCl2) for 16 h. Thereafter, the solution was incubated with anti-BCM antibody (Abnova, Taipei City, Taiwan) at 37 °C for 2 h. […] The radioactivity of the solution was also measured by a fluid scintillation counter (LSC-8000, Hitachi, Tokyo, Japan).

[3] = cited from earlier work
Text: BCM also acts on the immune system. […] Conversely, BCM suppresses lymphocyte proliferation at low concentrations, but promotes it at high concentrations above 10^−7 M [18] by activating the T cell helper (Th)-2 pathway, which induces an inflammatory response in the gut. […] Therefore, under such physiological conditions, BCM presents only in low concentrations and might suppress the immune syst ... || The CD10 that we examined in this study has various alternative names, including membrane metalloendopeptidase, common acute lymphocytic leukemia antigen, neprilysin, neutral endopeptidase, enkephalinase, and atriopeptidase [NCBI, OMIM]. CD10 is known to degrade short peptides such as natriuretic peptides, angiotensin II, bradykinin, apelins, substance P, and adrenomedullin [38]. CD10 expression is widespread in the intestinal mucosa. Incubation of BCM with brush border of the intestinal mucosa degrades 95% of BCM in 24 h.

T1 sequence (P08473 whole entry, species assumed): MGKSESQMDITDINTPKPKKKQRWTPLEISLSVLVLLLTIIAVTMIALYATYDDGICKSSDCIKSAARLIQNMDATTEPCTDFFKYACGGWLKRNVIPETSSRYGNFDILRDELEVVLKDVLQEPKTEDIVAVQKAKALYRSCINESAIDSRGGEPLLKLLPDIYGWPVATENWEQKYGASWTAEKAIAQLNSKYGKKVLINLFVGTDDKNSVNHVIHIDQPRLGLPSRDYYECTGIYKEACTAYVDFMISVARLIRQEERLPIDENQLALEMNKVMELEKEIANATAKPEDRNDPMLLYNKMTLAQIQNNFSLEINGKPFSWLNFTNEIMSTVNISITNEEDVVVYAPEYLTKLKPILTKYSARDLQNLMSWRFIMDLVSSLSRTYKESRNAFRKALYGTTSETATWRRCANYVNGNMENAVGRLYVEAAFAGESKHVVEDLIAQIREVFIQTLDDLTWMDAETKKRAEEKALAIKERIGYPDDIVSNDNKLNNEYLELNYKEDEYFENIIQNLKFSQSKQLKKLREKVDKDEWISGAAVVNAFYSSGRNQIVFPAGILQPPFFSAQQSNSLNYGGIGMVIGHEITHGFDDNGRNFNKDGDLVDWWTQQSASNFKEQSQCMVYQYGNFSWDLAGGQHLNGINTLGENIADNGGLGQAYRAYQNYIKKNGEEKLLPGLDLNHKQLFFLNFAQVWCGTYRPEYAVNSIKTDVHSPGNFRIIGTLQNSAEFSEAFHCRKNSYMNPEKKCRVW

Row | Compound | degradation of BCM by CD10 in presence of TOP (CD10 [1]) | degraded fragment observed after CD10 treatment (CD10 [2]; 125I label on N-terminal tyrosine, position in polyacrylamide gel compared with labeled marker) | change in intact BCM over time with CD10 plus TOP (CD10 [2]; CD10 60 μg/mL + TOP 1 μM, time course, 125I-labeled BCM 50 μg) | time after which intact BCM completely disappeared (CD10 [2]; CD10 60 μg/mL, time course, 125I-labeled BCM 50 μg, Tris-HCl pH 7.1 buffer, electrophoresis, autoradiography) | fraction of BCM degraded on incubation with brush border of the intestinal mucosa ([3]; 24 h) | fraction of BCM degraded by digestive juice and jejunal brush border [3]
1 | O=C(O)CNC(=O)C(CS)Cc1ccccc1 (stereo not drawn) [TOP, thiorphan] | completely suppressed | – | – | – | – | –
2 | YPFPGPI [BCM, β-Casomorphin-7] | – | tyr-pro | no decrease | 24 h | 95% | 95%
